The record followed here is patent US7902354B2, “Lapachone compounds and methods of use thereof” (ArQule, Inc., priority 2006, dated 2011).

Like-named read-outs stand apart in the source and are kept apart here.

What all share (format): cell-based
Experiment [1] has as its system PACA-2 human pancreatic carcinoma cells. The experiment in a line: MTS cell viability assay, PACA-2 human pancreatic carcinoma cells. The following applies: read-out: IC50 Values, Cancerous Cells, Pancreas PACA-2. (In general: Formazan colour is commonly taken as a measure of viable cells.)
Experiment [2] relates to A549 human lung carcinoma cells. The experiment in a line: MTS cell viability assay, A549 human lung carcinoma cells. As to conditions: read-out: IC50 Values, Cancerous Cells, Lung A549.
For experiment [3], the system named is NCM-460 normal colon epithelial cells. The experiment in a line: MTS cell viability assay, NCM-460 normal colon epithelial cells. The following applies: for IC50: Homo sapiens, read-out: IC50 Values, Normal Cells, Colon NCM-460.
The subject of experiment [4] is DU-145 human prostate carcinoma cells. The experiment in a line: MTS cell viability assay, DU-145 human prostate carcinoma cells. As to conditions: read-out: IC50 Values, Cancerous Cells, Prostate DU-145.
In experiment [5] the test system is DLD-1 human colon carcinoma cells. The experiment in a line: MTS cell viability assay, DLD-1 human colon carcinoma cells. The following applies: read-out: IC50 Values, Cancerous Cells, Colon DLD-1.
Experiment [6] relates to K-562 human leukemia cells. The experiment in a line: MTS cell viability assay, K-562 human leukemia cells. As to conditions: read-out: IC50 Values, Cancerous Cells, Leukemia K-562.
Setting [7] is: PACA-2, 4 h compound incubation, MTS.
Setting [8] is: A549, 4 h compound incubation, MTS.
Setting [9] is: NCM460, NCM-460, 4 h compound incubation, MTS.
The mark [10] stands for this setting: DU-145, 4 h compound incubation, MTS.
The mark [11] stands for this setting: DLD-1, 4 h compound incubation, MTS.
Where [12] appears, read: K562, K-562, 4 h compound incubation, MTS.

`CCCCC(CC)COC(=O)N1CCC2(CC1)CSC1=C(O2)c2ccccc2C(=O)C1=O` (centres unmarked) [Compound 95, 2-ethylhexyl 5,6-dioxo-5,6-dihydro-1′H-spiro[naphtho[1,2-b][1,4]oxathiine-2,4′-piperidine]-1′-carboxylate]: the IC50 in experiment [1] (setting [7]) turned out to be 4.72 µM; in experiment [2] (setting [8]), 51.4 µM; in experiment [3] (setting [9]), 37.7 µM; in experiment [4] (setting [10]) it was 5.13 µM; in experiment [5] (setting [11]), 10.9 µM; in experiment [6] (setting [12]) it was 12.3 µM. In addition, in experiment [3] (ratio of IC50 NCM-460 / DLD1), the “Fold Selectivity (NCM-460/DLD1)” value worked out at 3.5.
As for `O=C1C(=O)c2ccccc2C2=C1SCC1(CCN(C(=O)OCc3ccccc3)CC1)O2` [Compound 98, benzyl 5,6-dioxo-5,6-dihydro-1′H-spiro[naphtho[1,2-b][1,4]oxathiine-2,4′-piperidine]-1′-carboxylate], the IC50 was found to be 1.61 µM in experiment [1] (setting [7]); 7.3 µM in experiment [2] (setting [8]); 4.78 µM in experiment [3] (setting [9]); 3.98 µM in experiment [4] (setting [10]); 3.11 µM in experiment [5] (setting [11]); 1.43 µM in experiment [6] (setting [12]). Further, the “Fold Selectivity (NCM-460/DLD1)” value in experiment [3] (ratio of IC50 NCM-460 / DLD1) was 1.5.
With `O=C1C(=O)c2ccc(F)cc2C2=C1SCC1(CCN(C(=O)Oc3cccc(C(F)(F)F)c3)CC1)O2` [Compound 100, 3-(trifluoromethyl)phenyl 9-fluoro-5,6-dioxo-5,6-dihydro-1′H-spiro[naphtho[1,2-b][1,4]oxathiine-2,4′-piperidine]-1′-carboxylate], the IC50 in experiment [1] (setting [7]) amounted to 1.32 µM; in experiment [2] (setting [8]) it was 8 µM; in experiment [3] (setting [9]), 5.67 µM; in experiment [4] (setting [10]), 1.39 µM; in experiment [5] (setting [11]), 1.13 µM; in experiment [6] (setting [12]) it was 1.37 µM. In addition, the “Fold Selectivity (NCM-460/DLD1)” value in experiment [3] (ratio of IC50 NCM-460 / DLD1) was 5.0.
`Cc1ccc(OC(=O)N2CCC3(CC2)CSC2=C(O3)c3ccccc3C(=O)C2=O)cn1` [Compound 111, 6-methyllpyridin-3-yl 5,6-dioxo-5,6-dihydro-1′H-spiro[naphtho[1,2-b][1,4]oxathiine-2,4′-piperidine]-1′-carboxylate]: the IC50 was found to be 1.7 µM in experiment [1] (PaCa-2, 4 h); 4.63 µM in experiment [2] (A549, 4 h); 4.78 µM in experiment [3] (NCM460, 4 h); 4.1 µM in experiment [4] (DU-145, 4 h); 1.52 µM in experiment [5] (DLD-1, 4 h); 2.01 µM in experiment [6] (K562, 4 h). Besides, the “Fold Selectivity (NCM-460/DLD1)” value in experiment [3] was found to be 3.1.
On to `O=C1C(=O)c2ccccc2C2=C1SCC1(CCN(C(=O)Oc3ccccn3)CC1)O2` [Compound 112, pyridin-2-yl 5,6-dioxo-5,6-dihydro-1′H-spiro[naphtho[1,2-b][1,4]oxathiine-2,4′-piperidine]-1′-carboxylate], for which the IC50 in experiment [1] (setting [7]) stood at 1.83 µM; in experiment [2] (setting [8]), 11.2 µM; in experiment [3] (setting [9]), 6.3 µM; in experiment [4] (setting [10]), 3.99 µM; in experiment [5] (setting [11]), 1.54 µM; in experiment [6] (setting [12]) it was 2.97 µM. Besides, the “Fold Selectivity (NCM-460/DLD1)” value in experiment [3] (ratio of IC50 NCM-460 / DLD1) came to 4.1.
For `O=C1C(=O)c2ccccc2C2=C1SCC1(CCN(Cc3ccccc3F)CC1)O2` [Compound 118, 1′-(2-fluorobenzyl)spiro[naphtho[1,2-b][1,4]oxathiine-2,4′-piperidine]-5,6-dione], the IC50 in experiment [1] (setting [7]) was 2.27 µM; in experiment [2] (setting [8]) it was 10.1 µM; in experiment [3] (setting [9]), 8.3 µM; in experiment [4] (setting [10]) it was 5.02 µM; in experiment [5] (setting [11]), 2.42 µM; in experiment [6] (setting [12]), 3.85 µM. Further, the “Fold Selectivity (NCM-460/DLD1)” value in experiment [3] (ratio of IC50 NCM-460 / DLD1) worked out at 3.4.
Take `Cc1ccc(CN2CCC3(CC2)CSC2=C(O3)c3ccccc3C(=O)C2=O)cc1` [Compound 120, 1′-(4-methylbenzyl)spiro[naphtho[1,2-b][1,4]oxathiine-2,4′-piperidine]-5,6-dione]: the IC50 in experiment [1] (setting [7]) came out at 4.35 µM; in experiment [2] (setting [8]), 9.04 µM; in experiment [3] (setting [9]), 10.4 µM; in experiment [4] (setting [10]), 9.27 µM; in experiment [5] (setting [11]) it was 4.23 µM; in experiment [6] (setting [12]), 5.47 µM. Besides, the “Fold Selectivity (NCM-460/DLD1)” value in experiment [3] (ratio of IC50 NCM-460 / DLD1) was found to be 2.5.
With `COc1cccc(CN2CCC3(CC2)CSC2=C(O3)c3ccccc3C(=O)C2=O)c1` [Compound 121, 1′-(3-methoxybenzyl)spiro[naphtho[1,2-b][1,4]oxathiine-2,4′-piperidine]5,6-dione], the IC50 in experiment [1] (setting [7]) was 3.71 µM; in experiment [2] (setting [8]), 9.42 µM; in experiment [3] (setting [9]), 11 µM; in experiment [4] (setting [10]), 5.48 µM; in experiment [5] (setting [11]), 3.98 µM; in experiment [6] (setting [12]), 4.03 µM. Also, the “Fold Selectivity (NCM-460/DLD1)” value in experiment [3] (ratio of IC50 NCM-460 / DLD1) came to 2.8.
Take `O=C1C(=O)c2ccccc2C2=C1SCC1(CCN(CC3CC3)CC1)O2` [Compound 122, 1′-(cyclopropylmethyl)spiro[naphtho[1,2-b][1,4]oxathiine-2,4′-piperidine]-5,6-dione]: the IC50 in experiment [1] (setting [7]) is 1.31 µM; in experiment [2] (setting [8]), 6.02 µM; in experiment [3] (setting [9]), 3.37 µM; in experiment [4] (setting [10]), 2.02 µM; in experiment [5] (setting [11]), 1.66 µM; in experiment [6] (setting [12]), 1.45 µM. Moreover, the “Fold Selectivity (NCM-460/DLD1)” value in experiment [3] (ratio of IC50 NCM-460 / DLD1) came to 2.0.
On to `N#Cc1ccc(CN2CCC3(CC2)CSC2=C(O3)c3ccccc3C(=O)C2=O)cc1` [Compound 123, 4-[(5,6-dioxo-5,6-dihydro-1′H-spiro[naphtho[1,2-b][1,4]oxathiine-2,4′-piperidine]-1′-yl)methyl]benzonitrile], for which the IC50 in experiment [1] (setting [7]) came to 4.18 µM; in experiment [2] (setting [8]), 36.8 µM; in experiment [3] (setting [9]), 9.96 µM; in experiment [4] (setting [10]), 4.32 µM; in experiment [5] (setting [11]), 4.37 µM; in experiment [6] (setting [12]) it was 4.09 µM. Moreover, the “Fold Selectivity (NCM-460/DLD1)” value in experiment [3] (ratio of IC50 NCM-460 / DLD1) is 2.3.
As for `CC(C)CN1CCC2(CC1)CSC1=C(O2)c2ccccc2C(=O)C1=O` [Compound 126, 1′-isobutylspiro[naphtho[1,2-b][1,4]oxathiine-2,4′-piperidine]-5,6-dione], the IC50 in experiment [1] (setting [7]) was determined as 1.44 µM; in experiment [2] (setting [8]), 5 µM; in experiment [3] (setting [9]), 5.26 µM; in experiment [4] (setting [10]), 4.05 µM; in experiment [5] (setting [11]), 3.12 µM; in experiment [6] (setting [12]) it was 1.63 µM. In addition, in experiment [3] (ratio of IC50 NCM-460 / DLD1), the “Fold Selectivity (NCM-460/DLD1)” value came out at 1.7.
In the case of `CCCCCCCCCCN1CCC2(CC1)CSC1=C(O2)c2ccccc2C(=O)C1=O` [Compound 128, 1′-decylspiro[naphtho[1,2-b][1,4]oxathiine-2,4′-piperidine]-5,6-dione], the IC50 in experiment [1] (setting [7]) is 9.22 µM; in experiment [2] (setting [8]), 42.8 µM; in experiment [3] (setting [9]), 40.8 µM; in experiment [4] (setting [10]), 7.41 µM; in experiment [5] (setting [11]) it was 16.9 µM; in experiment [6] (setting [12]) it was 21 µM. Besides, in experiment [3] (ratio of IC50 NCM-460 / DLD1), the “Fold Selectivity (NCM-460/DLD1)” value stood at 2.4.
In the case of `O=C1C(=O)c2ccccc2C2=C1SCC1(CCN(Cc3ccccc3)CC1)O2` [Compound 130, 1′-benzylspiro[naphtho[1,2-b][1,4]oxathiine-2,4′-piperidine]-5,6-dione], the IC50 in experiment [1] (setting [7]) was 2.74 µM; in experiment [2] (setting [8]) it was 7.4 µM; in experiment [3] (setting [9]), 10.2 µM; in experiment [4] (setting [10]) it was 4.58 µM; in experiment [5] (setting [11]) it was 1.57 µM; in experiment [6] (setting [12]), 3.84 µM. Besides, the “Fold Selectivity (NCM-460/DLD1)” value in experiment [3] (ratio of IC50 NCM-460 / DLD1) worked out at 6.5.
`C=CCN1CCC2(CC1)CSC1=C(O2)c2ccccc2C(=O)C1=O` [Compound 131, 1′-allylspiro[naphtho[1,2-b][1,4]oxathiine-2,4′-piperidine]-5,6-dione]: the IC50 was found to be 1.44 µM in experiment [1] (setting [7]); 6.9 µM in experiment [2] (setting [8]); 2.95 µM in experiment [3] (setting [9]); 2.7 µM in experiment [4] (setting [10]); 1.46 µM in experiment [5] (setting [11]); 1.39 µM in experiment [6] (setting [12]). For the same compound, the “Fold Selectivity (NCM-460/DLD1)” value in experiment [3] (ratio of IC50 NCM-460 / DLD1) was 2.0.
Regarding `CC(C)CCN1CCC2(CC1)CSC1=C(O2)c2ccccc2C(=O)C1=O` [Compound 132, 1′-(3-methylbutyl)spiro[naphtho[1,2-b][1,4]oxathiine-2,4′-piperidine]-5,6-dione], the IC50 in experiment [1] (setting [7]) was 1.94 µM; in experiment [2] (setting [8]) it was 6.62 µM; in experiment [3] (setting [9]), 9.74 µM; in experiment [4] (setting [10]) it was 4.05 µM; in experiment [5] (setting [11]) it was 1.53 µM; in experiment [6] (setting [12]), 2.86 µM. Further, in experiment [3] (ratio of IC50 NCM-460 / DLD1), the “Fold Selectivity (NCM-460/DLD1)” value is listed as 6.4.
For the compound `Cc1cccc(CN2CCC3(CC2)CSC2=C(O3)c3ccccc3C(=O)C2=O)c1` [Compound 133, 1′-(3-methylbenzyl)spiro[naphtho[1,2-b][1,4]oxathiine-2,4′-piperidine]-5,6-dione], the IC50 in experiment [1] (setting [7]) worked out at 12.5 µM; in experiment [2] (setting [8]), 73 µM; in experiment [3] (setting [9]), 29.6 µM; in experiment [4] (setting [10]), 12.9 µM; in experiment [5] (setting [11]) it was 13.1 µM; in experiment [6] (setting [12]), 15 µM. Also, in experiment [3] (ratio of IC50 NCM-460 / DLD1), the “Fold Selectivity (NCM-460/DLD1)” value is on record as 2.3.
Take `CC(C(=O)Nc1ccccc1)N1CCC2(CC1)CSC1=C(O2)c2ccccc2C(=O)C1=O` (centres unmarked) [Compound 134, 2-(5,6-dioxo-5,6-dihydro-1′H-spiro[naphtho[1,2-b][1,4]oxathiine-2,4′-piperidin]-1′-yl)-N-phenylpropanamide]: the IC50 in experiment [1] (setting [7]) is 4.43 µM; in experiment [2] (setting [8]), 23.3 µM; in experiment [3] (setting [9]), 15.6 µM; in experiment [4] (setting [10]), 6.87 µM; in experiment [5] (setting [11]) it was 3.94 µM; in experiment [6] (setting [12]) it was 7.22 µM. Moreover, in experiment [3] (ratio of IC50 NCM-460 / DLD1), the “Fold Selectivity (NCM-460/DLD1)” value stood at 4.0.

One may read the IC50 as the point on the concentration scale where inhibition reaches its midpoint.
